Target: T1, Peptidylglycine monooxygenase (PHM) (Rattus norvegicus, UniProt P14925)
T1 sequence (P14925 42-356): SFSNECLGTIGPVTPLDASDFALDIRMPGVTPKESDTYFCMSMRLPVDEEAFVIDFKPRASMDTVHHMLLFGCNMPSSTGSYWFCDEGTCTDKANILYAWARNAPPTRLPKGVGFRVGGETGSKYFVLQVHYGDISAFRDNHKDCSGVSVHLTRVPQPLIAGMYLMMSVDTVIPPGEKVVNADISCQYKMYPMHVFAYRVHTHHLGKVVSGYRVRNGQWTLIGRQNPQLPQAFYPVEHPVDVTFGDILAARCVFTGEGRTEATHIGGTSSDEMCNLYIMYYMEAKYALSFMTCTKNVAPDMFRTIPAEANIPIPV
Assay: chemical-quench product formation versus ascorbate, fitted to a binding event
Format: biochemical

Molecule `O=C1O[C@H]([C@@H](O)CO)C(O)=C1O` [ascorbate] has a Kd of 117 µM.

From article PMC9064607 (Biochemistry, 2022)
